Laboratory results taken from patent US6034066A, “Cysteine protease inhibitors for use in treatment of IGE mediated allergic diseases” (Peptide Therapeutics Limited, priority 1995, dated 2000).

Each compound was assayed against T1, Der p I (Dermatophagoides pteronyssinus, UniProt P08176) (assay: Inhibition (inactivation) kinetics of Der p I, fluorogenic substrate assay). Conditions: second order inactivation rate constant; 50 mM potassium phosphate pH 8.25, 1 mM EDTA, 1 mM DTT, 25° C.; purified Der p I.
T1 construct: tissue SmithKline-Beecham (crude mite extract); host or cells: house dust mite extract, purified on immobilised anti-Der p I antibody 4C1
T1 sequence (P08176 99-320): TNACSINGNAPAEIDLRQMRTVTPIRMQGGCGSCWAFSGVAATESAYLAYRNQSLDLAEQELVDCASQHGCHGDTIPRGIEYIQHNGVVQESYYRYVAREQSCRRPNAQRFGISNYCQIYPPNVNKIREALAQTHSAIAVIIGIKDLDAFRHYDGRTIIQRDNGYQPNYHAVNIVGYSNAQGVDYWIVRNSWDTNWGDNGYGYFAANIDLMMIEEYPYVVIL
Type: biochemical
Experimental: All Der-p I enzyme assays were routinely carried out in 50 mM potassium phosphate; pH 8.25 containing 1 mM ethylenediaminetetraaceticacid (EDTA) and 1 mM dithiothreitol (DTT). Product formation was monitored with respect to time by measuring the increase in fluorescence emission at 420 nm and exciting at 320 nm. All assays were carried out at 25° C. Stock solutions of the various substrates and/or inhibitors were made up in 100% dimethylsulphoxide (DMSO).
The reaction of enzyme and inhibitor is comprised of two steps. The first is binding of enzyme and inhibitor to produce the enzyme inhibitor complex (E.I). This step is assumed to be rapid and reversible, relative to the other steps, and no chemical reaction occurs. In this case k1 is the second order rate constant for the formation of the E.I complex and k-1 is the first order rate constant for the breakdown of the E.I. The second step in the process, occurring at a rate k2, is the formation of the enzyme-inhibitor covalent complex (EI) resulting in irreversible inactivation of the enzyme.
The practice of inactivation kinetics of enzymes have been described by two standard accepted methods (Schemes 1 and 2). The first (Scheme 1) is the dilution method described by Kitz, C. G. and Wilson, I. B., (1962), J. Biol. Chem., 237, 3245-3249. In this case enzyme and inhibitor are pre-incubated for a set period of time prior to quenching of this reaction by the addition of an excess of substrate. The second method (Scheme 2), is monitoring enzyme inactivation in the presence of substrate and irreversible inhibitors. This method has been described previously (Tian, W. -X. & Tsou, C. -L, (1982), Biochemistry, 21, 1028-1032; Morrison, J. F. & Walsh, C. T., (1988), Adv. Enzymol. Relat. Areas Mol. Biol., 61, 201-301) and the equations describing the kinetics are shown below (Eq. 1, 2 and 3). In both cases the inhibitor concentration employed is at least 10 times greater than the enzyme concentration in order to maintain pseudo-first order conditions.
kapp =k2 [I]/1+[S]/KM [I]+K1) Eq. 1
[Product]=vs t+(v0 -v5)[1-exp(-kapp t)]/kapp +dEq.
second order rate constant=(kapp /[I])(1+[S]/KM) Eq. 3
The apparent inactivation rate constant (kapp) was calculated using Eq. 2; where vo is the initial velocity of the reaction, vs is asymptotic steady-state velocity of the reaction, d is the intercept at time zero. The second order rate was calculated using Eq. 3.
Assays were routinely carried out in 50 mM potassium phosphate; pH 8.25 containing 1 mM ethylenediaminetetraaceticacid (EDTA) and 1 mM dithiothreitol (DTT). The fluorogenic substrate was 2-aminobenzoylvalylalanylnorleucylseryl-(3-nitro)tyrosinyl aspartylamide. Product formation was monitored with respect to time by measuring the increase in fluorescence emission at 420 nm and exciting at 320 nm. Assays were carried out at 25° C. Stock solutions of the various inhibitors were made up in 100% dimethylsulphoxide.
Inactivation kinetics for various inhibitors were carried out using the techniques already described. In the dilution method, generally 100 nM Der p I was mixed and incubated with 0.5-10 uM of the inhibitor and aliquots were taken out at given time points (sampling time) and the residual enzyme activity determined by a ten-fold dilution into assay buffer containing saturating amounts of substrate. The residual activity was related to the sampling time and the curve fitted by computational non-linear least square regression analysis. In cases where the second order rate constants were greater than 10^5 M^-1 s^-1, second order conditions were employed (i.e. equimolar amounts of enzyme and inhibitor). Generally stoichiometric amounts of enzyme and inhibitor were incubated for given time intervals (sampling time) and the reaction stopped by a ten-fold dilution of this mixture by saturating amounts of substrate in assay buffer. […]

Row | Structure (SMILES) | kobs /[I]
1 | CCCC[C@H](NC(=O)[C@H](C)NC(=O)[C@@H](NC(=O)c1ccccc1)C(C)C)C(=O)NOC(=O)c1c(C)cccc1C [Compound 16, N-(N-benzoyl-L-valyl-L-alanyl-L-norleucyl)-O-2,6-dimethyl-benzoyl hydroxamate] | 1.6 × 10^4 M^- s^-1
2 | CCCC[C@H](NC(=O)[C@H](C)NC(=O)[C@@H](NC(=O)c1ccccc1)C(C)C)C(=O)COC(=O)c1c(C)cccc1C [Compound 4, N-Benzoyl-L-valyl-L-alanyl-L-norleucine 2,6-dimethyl benzoyloxy methyl ketone] | 1.6 × 10^7 M^- s^-1
3 | CCCC[C@H](NC(=O)[C@H](C)NC(=O)[C@@H](NC(=O)c1ccccc1)C(C)C)C(=O)COC(=O)c1c(F)c(F)c(F)c(F)c1F [Compound 8, N-Benzoyl-L-valyl-L-alanyl-L-norleucine 2,3,4,5,6-pentafluoro benzoyloxy methyl ketone] | > 10^7 M^- s^-1
4 | CCCC[C@H](NC(=O)[C@H](C)NC(=O)[C@@H](NC(=O)c1ccccc1)C(C)C)C(=O)NOC(=O)c1ccccc1 [Compound 15, N-(Benzoyl amino-L-valyl-L-alanyl-L-norleucyl)-O-benzoyl hydroxamate] | 1.5 × 10^5 M^- s^-1
5 | CCOC(=O)/C=C/[C@H](CC(C)C)NC(=O)[C@H](C)NC(=O)[C@@H](NC(=O)OC(C)(C)C)C(C)C [Compound 23] | 1.7 × 10^3 M^- s^-1
6 | CCCC[C@H](NC(=O)[C@H](C)NC(=O)[C@@H](NC(=O)c1ccccc1)C(C)C)C(=O)COC(=O)[C@@H](COC(C)(C)C)NC(=O)OCc1ccccc1 [Compound 10, N-Benzoyl-L-valyl-L-alanyl-L-norleucine N-(-benzyloxycarbonyl)-D-serinyl-(O-tert-butyl)oxymethyl ketone] | 1.9 × 10^5 M^- s^-1
7 | CCCC[C@H](NC(=O)[C@H](C)NC(=O)[C@@H](NC(=O)c1ccccc1)C(C)C)C(=O)COC(=O)[C@@H](CO)NC(=O)OCc1ccccc1 [Compound 11, N-Benzoyl-L-valyl-L-alanyl-L-norleucine N(-benzyloxycarbonyl)-D-serinyloxy methyl ketone] | 1.2 × 10^6 M^- s^-1
8 | CCCC[C@H](NC(=O)[C@H](C)NC(=O)[C@@H](NC(=O)c1ccccc1)C(C)C)C(=O)COC(=O)c1c(Cl)cccc1Cl [Compound 6, N-Benzoyl-L-valyl-L-alanyl-L-norleucine 2,6-dichlorobenzoyloxymethyl ketone] | 6.8 × 10^7 M^- s^-1
9 | CCOC(=O)/C=C/[C@H](CC(C)C)NC(=O)[C@H](C)NC(=O)[C@@H](NC(=O)C1c2ccccc2Oc2ccccc21)C(C)C [Compound 34] | 1.1 × 10^4 M^- s^-1
10 | CCCC[C@H](NC(=O)[C@H](C)NC(=O)[C@@H](NC(=O)c1ccccc1)C(C)C)C(=O)COC(=O)c1c(C(F)(F)F)cccc1C(F)(F)F [Compound 3, N-Benzoyl-L-valyl-L-alanyl-L-norleucine 2,6-bis (trifluoromethyl)benzoyloxymethyl ketone] | > 10^7 M^- s^-1
11 | CCOC(=O)/C=C/[C@H](CC(C)C)NC(=O)[C@H](C)NC(=O)[C@@H](NC(=O)c1ccc2c(c1)OCO2)C(C)C [Compound 28] | 6.8 × 10^3 M^- s^-1
12 | CCOC(=O)/C=C/[C@H](CC(C)C)NC(=O)[C@H](C)NC(=O)[C@@H](NC(=O)c1ccccc1C(F)(F)F)C(C)C [Compound 27] | 6.3 × 10^3 M^- s^-1
13 | CCCC[C@H](NC(=O)[C@H](C)NC(=O)[C@@H](NC(=O)c1ccccc1)C(C)C)C(=O)COC(=O)c1ccccc1 [Compound 7, N-Benzoyl-L-valyl-L-alanyl-L-norleucine benzoyloxymethyl ketone] | 3.7 × 10^5 M^- s^-1

Same assay, conditions: second order inactivation rate constant; 50 mM potassium phosphate pH 8.25, 1 mM EDTA, 1 mM DTT, 25° C.; purified Der p I; read-out: kobs /[I]

Row | Structure (SMILES) | kinact/KI [M⁻¹ s⁻¹]
14 | CC(C)C[C@@H](/C=C/S(C)(=O)=O)NC(=O)[C@H](C)NC(=O)[C@@H](NNC(=O)OC(C)(C)C)C(C)C [Compound 38, (S)-(E)-3-((tert-butoxycarbonylamino-L-valyl)-L-alanyl)amino-1-methylsulfonyl-5-methyl-1-hexene] | 1100
